Test system: 253994-281-T-J1-PDC KRAS-mutant spheroids with HUVEC/MSC, viability
Experiment: Anticancer human tumor 253994-281-T-J1-PDC patient-derived colorectal carcinoma cell line growth inhibition [KRAS2]
Details: for IC50: curve of first compound; for viability, T/C: stronger effect = lower value
Outline: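 Combination screen of spheroid viability in tumor-cell co-cultures with endothelial (HUVEC) and mesenchymal stem cell stroma. Each agent was tested in half-log dilutions, topping at clinical Cmax or at 10 microM without a known Cmax.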

[1] = second compound 0.1 µM, first compound 0.0316 µM
[2] = second compound 0.1 µM, first compound 0.1 µM
[3] = second compound 0.1 µM, first compound 0.316 µM
[4] = second compound 0.1 µM, first compound 1 µM
[5] = second compound 0.1 µM, first compound 3.16 µM
[6] = second compound 0.1 µM, first compound 10 µM
[7] = second compound 0.316 µM, first compound 0.0316 µM
[8] = second compound 0.316 µM, first compound 0.1 µM
[9] = second compound 0.316 µM, first compound 0.316 µM
[10] = second compound 0.316 µM, first compound 1 µM
[11] = second compound 0.316 µM, first compound 3.16 µM
[12] = second compound 0.316 µM, first compound 10 µM
[13] = second compound 1 µM, first compound 0.0316 µM
[14] = second compound 1 µM, first compound 0.1 µM
[15] = second compound 1 µM, first compound 0.316 µM
[16] = second compound 1 µM, first compound 1 µM
[17] = second compound 1 µM, first compound 3.16 µM
[18] = second compound 1 µM, first compound 10 µM
[19] = second compound 3.16 µM, first compound 0.0316 µM
[20] = second compound 3.16 µM, first compound 0.1 µM
[21] = second compound 3.16 µM, first compound 0.316 µM
[22] = second compound 3.16 µM, first compound 1 µM
[23] = second compound 3.16 µM, first compound 3.16 µM
[24] = second compound 3.16 µM, first compound 10 µM
[25] = second compound 10 µM, first compound 0.0316 µM
[26] = second compound 10 µM, first compound 0.1 µM
[27] = second compound 10 µM, first compound 0.316 µM
[28] = second compound 10 µM, first compound 1 µM
[29] = second compound 10 µM, first compound 3.16 µM
[30] = second compound 10 µM, first compound 10 µM
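Further: spheroids exposed to agents for seven days before readout.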
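Wherever viability, T/C is given: percent of DMSO vehicle control viability.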

| Compound | IC50 (second compound 0.1 µM) [µM] | IC50 (second compound 0.316 µM) [µM] | IC50 (second compound 1 µM) [µM] | IC50 (second compound 3.16 µM) [µM] | IC50 (second compound 10 µM) [µM] | viability, T/C [1] [%] | viability, T/C [2] [%] | viability, T/C [3] [%] | viability, T/C [4] [%] | viability, T/C [5] [%] | viability, T/C [6] [%] | viability, T/C [7] [%] | viability, T/C [8] [%] | viability, T/C [9] [%] | viability, T/C [10] [%] | viability, T/C [11] [%] | viability, T/C [12] [%] | viability, T/C [13] [%] | viability, T/C [14] [%] | viability, T/C [15] [%] | further results |
| --- | --- | --- | --- | --- | --- | --- | --- | --- | --- | --- | --- | --- | --- | --- | --- | --- | --- | --- | --- | --- | --- |
| COc1cc(Nc2ncc3c(n2)-c2ccc(Cl)cc2C(c2c(F)cccc2OC)=NC3)ccc1C(=O)O + CC1OCC2(CCN(c3cnc(Sc4ccnc(N)c4Cl)c(N)n3)CC2)C1N | < 0.0316 | < 0.0316 | < 0.0316 | < 0.0316 | < 0.0316 | 51 | 25.3 | 24.6 | 28.7 | 40.4 | 42.6 | 34.6 | 21.5 | 22 | 26 | 25.8 | 23.7 | 23.4 | 16.7 | 17.7 | viability, T/C [16]: 19.6%; viability, T/C [17]: 18.7%; viability, T/C [18]: 20.1%; viability, T/C [19]: 19.5%; viability, T/C [20]: 14.2%; viability, T/C [21]: 14.1%; viability, T/C [22]: 18.5%; viability, T/C [23]: 14.2%; viability, T/C [24]: 21%; viability, T/C [25]: 13.3%; viability, T/C [26]: 12.5%; viability, T/C [27]: 10.3%; viability, T/C [28]: 9.72%; viability, T/C [29]: 10.8%; viability, T/C [30]: 9.48% |
| COc1cc2nccc(Oc3ccc(NC(=O)C4(C(=O)Nc5ccc(F)cc5)CC4)cc3)c2cc1OC + CC1OCC2(CCN(c3cnc(Sc4ccnc(N)c4Cl)c(N)n3)CC2)C1N | > 10 | 8.23 | 7.62 | 4.84 | < 0.0316 | 99 | 106 | 89.8 | 74.9 | 81.2 | 65.1 | 87.8 | 105 | 96.3 | 83.3 | 75.2 | 45 | 74 | 83.1 | 86.2 | viability, T/C [16]: 84.9%; viability, T/C [17]: 77.5%; viability, T/C [18]: 41.4%; viability, T/C [19]: 58.5%; viability, T/C [20]: 64.8%; viability, T/C [21]: 70.4%; viability, T/C [22]: 64.7%; viability, T/C [23]: 65.6%; viability, T/C [24]: 24.9%; viability, T/C [25]: 29.6%; viability, T/C [26]: 36.2%; viability, T/C [27]: 50.5%; viability, T/C [28]: 41.5%; viability, T/C [29]: 39.9%; viability, T/C [30]: 14% |
